Active and inactive are the calls of the source. The calls are words filed in the database; no cut-off is given here.
Assays:
Type in all cases: cell-based
[1] = target: T1, Solute carrier organic anion transporter family member 1B3 (Homo sapiens, UniProt Q9NPD5); experiment: Inhibition of OATP1B3 (unknown origin) transfected in human A-431 cells assessed as inhibition of DHPDS uptake preincubated for 5 mins followed by DHPDS addition and measured after 10 mins by fluorescence based analysis
T1 sequence (Q9NPD5 whole entry): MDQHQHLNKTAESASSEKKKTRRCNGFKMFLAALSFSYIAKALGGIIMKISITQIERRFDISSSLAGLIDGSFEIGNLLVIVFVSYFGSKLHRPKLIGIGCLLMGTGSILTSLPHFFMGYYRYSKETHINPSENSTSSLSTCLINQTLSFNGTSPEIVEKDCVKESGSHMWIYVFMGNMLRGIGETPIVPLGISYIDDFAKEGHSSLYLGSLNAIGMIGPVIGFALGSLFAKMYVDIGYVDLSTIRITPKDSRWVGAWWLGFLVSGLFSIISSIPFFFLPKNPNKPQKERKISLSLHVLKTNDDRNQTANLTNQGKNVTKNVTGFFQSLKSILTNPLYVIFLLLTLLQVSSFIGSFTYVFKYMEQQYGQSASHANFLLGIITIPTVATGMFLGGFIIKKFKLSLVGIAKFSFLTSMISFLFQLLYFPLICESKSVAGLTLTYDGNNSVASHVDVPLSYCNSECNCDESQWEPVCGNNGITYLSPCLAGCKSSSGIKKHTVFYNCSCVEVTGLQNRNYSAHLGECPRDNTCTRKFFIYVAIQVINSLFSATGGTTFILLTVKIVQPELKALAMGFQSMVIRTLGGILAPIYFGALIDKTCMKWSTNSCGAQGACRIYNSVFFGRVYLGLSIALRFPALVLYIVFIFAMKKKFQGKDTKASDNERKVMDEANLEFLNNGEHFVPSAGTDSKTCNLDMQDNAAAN

[2] = target: Sodium-dependent serotonin transporter (Homo sapiens) (UniProt P31645); experiment: Inhibition of SERT (unknown origin) expressed in HEK293 cells assessed as inhibition of MPP+ transport incubated for 5 mins by tandem mass spectrometry
Sequence of Sodium-dependent serotonin transporter (Homo sapiens) (P31645 whole entry, looked up): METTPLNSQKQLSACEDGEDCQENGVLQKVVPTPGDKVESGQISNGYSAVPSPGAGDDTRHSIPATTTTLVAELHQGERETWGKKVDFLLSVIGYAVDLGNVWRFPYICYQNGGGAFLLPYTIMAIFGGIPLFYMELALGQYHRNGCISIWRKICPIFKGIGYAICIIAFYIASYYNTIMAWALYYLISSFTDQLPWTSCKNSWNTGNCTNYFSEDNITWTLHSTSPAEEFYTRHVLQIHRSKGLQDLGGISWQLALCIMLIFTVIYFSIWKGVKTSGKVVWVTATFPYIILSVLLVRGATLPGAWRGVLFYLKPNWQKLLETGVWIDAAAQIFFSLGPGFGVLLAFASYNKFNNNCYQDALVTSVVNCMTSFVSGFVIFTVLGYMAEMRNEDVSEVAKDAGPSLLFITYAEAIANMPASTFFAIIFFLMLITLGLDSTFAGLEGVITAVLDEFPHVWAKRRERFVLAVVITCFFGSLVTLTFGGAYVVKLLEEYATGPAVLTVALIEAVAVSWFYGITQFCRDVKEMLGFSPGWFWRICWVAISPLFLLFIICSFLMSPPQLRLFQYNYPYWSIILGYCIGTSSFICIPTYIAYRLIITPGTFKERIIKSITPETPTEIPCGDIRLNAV

[3] = target: T2, Solute carrier organic anion transporter family member 1B1 (Homo sapiens, UniProt Q9Y6L6); experiment: Inhibition of OATP1B1 (unknown origin) transfected in human A-431 cells assessed as inhibition of DHPDS uptake preincubated for 5 mins followed by DHPDS addition and measured after 10 mins by fluorescence based analysis
T2 sequence (Q9Y6L6 whole entry): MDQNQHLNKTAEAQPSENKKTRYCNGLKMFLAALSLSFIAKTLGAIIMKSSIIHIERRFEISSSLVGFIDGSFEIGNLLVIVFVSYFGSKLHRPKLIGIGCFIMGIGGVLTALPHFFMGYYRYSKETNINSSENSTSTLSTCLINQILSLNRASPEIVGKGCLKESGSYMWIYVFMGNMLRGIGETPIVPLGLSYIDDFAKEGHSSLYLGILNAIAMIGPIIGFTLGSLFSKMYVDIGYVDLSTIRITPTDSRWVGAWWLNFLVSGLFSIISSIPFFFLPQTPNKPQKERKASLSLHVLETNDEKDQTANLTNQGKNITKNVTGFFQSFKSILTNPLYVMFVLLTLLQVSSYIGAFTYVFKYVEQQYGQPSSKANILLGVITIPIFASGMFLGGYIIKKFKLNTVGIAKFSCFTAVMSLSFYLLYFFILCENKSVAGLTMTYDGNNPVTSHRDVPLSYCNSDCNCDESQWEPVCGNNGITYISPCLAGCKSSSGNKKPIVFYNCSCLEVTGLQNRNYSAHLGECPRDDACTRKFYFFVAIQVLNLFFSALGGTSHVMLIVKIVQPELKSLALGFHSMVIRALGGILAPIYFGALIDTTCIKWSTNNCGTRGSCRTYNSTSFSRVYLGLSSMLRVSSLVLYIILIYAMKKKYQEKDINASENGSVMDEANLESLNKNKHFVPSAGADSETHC

[4] = target: T3, ATP-dependent translocase ABCB1 (Homo sapiens, UniProt P08183); experiment: Inhibition of ABCB1 in human A2780 ADR cells assessed as increase in calcein-AM fluorescence intensity using calcein-AM as tracer preincubated for 30 mins followed by calcein-AM addition and measured within 30 mins at 30s intervals by fluorescence based analysis
T3 sequence (P08183 whole entry): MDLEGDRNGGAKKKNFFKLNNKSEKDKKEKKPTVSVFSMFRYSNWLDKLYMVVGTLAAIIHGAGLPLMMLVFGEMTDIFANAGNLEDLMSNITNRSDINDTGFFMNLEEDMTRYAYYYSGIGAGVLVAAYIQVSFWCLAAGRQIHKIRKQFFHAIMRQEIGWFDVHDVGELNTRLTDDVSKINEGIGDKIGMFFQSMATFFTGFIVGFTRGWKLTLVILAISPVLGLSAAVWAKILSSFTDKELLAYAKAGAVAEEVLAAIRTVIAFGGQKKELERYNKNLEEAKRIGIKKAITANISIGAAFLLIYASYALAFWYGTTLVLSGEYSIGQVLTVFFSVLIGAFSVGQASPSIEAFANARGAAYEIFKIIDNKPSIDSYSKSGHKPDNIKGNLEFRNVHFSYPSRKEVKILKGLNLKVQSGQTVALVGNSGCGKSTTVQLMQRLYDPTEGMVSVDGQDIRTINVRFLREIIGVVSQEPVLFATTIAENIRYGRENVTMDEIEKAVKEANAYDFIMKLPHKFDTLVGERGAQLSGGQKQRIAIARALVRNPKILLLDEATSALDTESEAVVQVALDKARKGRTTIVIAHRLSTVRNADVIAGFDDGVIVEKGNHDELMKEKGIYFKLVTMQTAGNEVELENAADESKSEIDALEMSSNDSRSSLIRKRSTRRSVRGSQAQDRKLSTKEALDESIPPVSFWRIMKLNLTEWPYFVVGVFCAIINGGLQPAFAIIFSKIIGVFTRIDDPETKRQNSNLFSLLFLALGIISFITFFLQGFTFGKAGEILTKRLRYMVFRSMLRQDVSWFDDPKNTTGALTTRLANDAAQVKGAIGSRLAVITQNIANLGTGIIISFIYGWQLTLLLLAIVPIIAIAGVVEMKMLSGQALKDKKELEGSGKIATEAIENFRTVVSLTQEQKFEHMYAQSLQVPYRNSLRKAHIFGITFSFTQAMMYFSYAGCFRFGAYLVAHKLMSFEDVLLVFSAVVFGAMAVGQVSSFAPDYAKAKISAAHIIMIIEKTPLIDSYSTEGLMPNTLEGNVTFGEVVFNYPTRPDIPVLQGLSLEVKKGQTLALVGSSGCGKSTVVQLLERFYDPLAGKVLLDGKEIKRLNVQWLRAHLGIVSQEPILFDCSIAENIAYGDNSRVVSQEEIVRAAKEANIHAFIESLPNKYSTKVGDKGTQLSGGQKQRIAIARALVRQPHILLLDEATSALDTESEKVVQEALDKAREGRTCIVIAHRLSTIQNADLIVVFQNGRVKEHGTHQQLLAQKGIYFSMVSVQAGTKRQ

[5] = target: T4, Solute carrier organic anion transporter family member 2B1 (Homo sapiens, UniProt O94956); experiment: Inhibition of OATP2B1 (unknown origin) transfected in human A-431 cells assessed as inhibition of pyranine uptake preincubated for 5 mins followed by pyranine addition and measured after 15 mins by fluorescence based analysis
T4 sequence (O94956 whole entry): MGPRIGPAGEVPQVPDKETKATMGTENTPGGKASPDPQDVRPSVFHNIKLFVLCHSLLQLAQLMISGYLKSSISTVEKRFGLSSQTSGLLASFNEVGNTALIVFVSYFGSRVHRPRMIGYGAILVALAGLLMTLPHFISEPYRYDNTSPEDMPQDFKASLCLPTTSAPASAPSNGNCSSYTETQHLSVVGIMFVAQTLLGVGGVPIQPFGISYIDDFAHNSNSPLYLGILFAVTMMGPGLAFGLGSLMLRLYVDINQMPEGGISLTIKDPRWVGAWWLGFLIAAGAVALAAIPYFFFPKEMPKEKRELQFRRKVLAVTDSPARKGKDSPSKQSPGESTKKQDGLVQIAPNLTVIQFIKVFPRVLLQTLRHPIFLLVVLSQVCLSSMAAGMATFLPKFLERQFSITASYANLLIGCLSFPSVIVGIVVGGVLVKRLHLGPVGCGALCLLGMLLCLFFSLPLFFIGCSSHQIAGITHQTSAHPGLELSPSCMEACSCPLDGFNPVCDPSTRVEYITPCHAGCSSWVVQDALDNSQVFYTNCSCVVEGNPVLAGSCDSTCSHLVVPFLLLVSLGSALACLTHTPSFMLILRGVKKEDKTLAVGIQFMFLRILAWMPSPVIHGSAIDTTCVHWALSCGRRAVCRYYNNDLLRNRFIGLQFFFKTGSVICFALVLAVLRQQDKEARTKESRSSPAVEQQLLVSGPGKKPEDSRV

[6] = target: T3, ATP-dependent translocase ABCB1; experiment: Inhibition of ABCB1 in human A2780 ADR cells assessed as increase in daunorubicin fluorescence intensity using daunorubicin as tracer preincubated for 30 mins followed by daunorubicin addition and measured for 180 mins by flow cytometry

SMILES	IC50 [1] [nM]	inhibition [2]	IC50 [3] [nM]	IC50 [4] [nM]	IC50 [5] [nM]	IC50 [6] [nM]
COc1cccc(NC(=O)c2nn(CC(=O)Nc3ccccc3OC)c3ccccc23)c1	1800	inactive	5660	1560	124	2180
O=C(Cn1nc(C(=O)Nc2cccnc2)c2ccccc21)Nc1ccc(Cl)cc1	1840	inactive	17900	6120	155	8000
COc1cccc(NC(=O)Cn2nc(C(=O)Nc3cccc(OC)c3)c3ccccc32)c1	2290	inactive	4960	1100	583	1430
O=C(Cn1nc(C(=O)Nc2ccccn2)c2ccccc21)Nc1cc(Cl)ccc1Cl	14100	inactive	16800	626	167	1740
